Where two headings read alike, the source gives them in different places.
Key:
TAZ = conditions: Table 10; literature, cells not named; cited from earlier work
Lgr5+ cochlear cells = assay: Lgr5+ Assay (in vitro Lgr5+ cell proliferation assay); format: cell-based
EZH2 [1] = target: EZH2 (Homo sapiens, UniProt O75530+Q15910); conditions: Table 7; includes EED, SAM-competitive and SAH-hydrolase inhibitors; read-out: pKi or IC50 (converted); cited from earlier work
EZH-1 = EZH-1 (Homo sapiens, UniProt Q92800); conditions: Table 7, cited from earlier work
EZH-1, sequence (Q92800 whole entry): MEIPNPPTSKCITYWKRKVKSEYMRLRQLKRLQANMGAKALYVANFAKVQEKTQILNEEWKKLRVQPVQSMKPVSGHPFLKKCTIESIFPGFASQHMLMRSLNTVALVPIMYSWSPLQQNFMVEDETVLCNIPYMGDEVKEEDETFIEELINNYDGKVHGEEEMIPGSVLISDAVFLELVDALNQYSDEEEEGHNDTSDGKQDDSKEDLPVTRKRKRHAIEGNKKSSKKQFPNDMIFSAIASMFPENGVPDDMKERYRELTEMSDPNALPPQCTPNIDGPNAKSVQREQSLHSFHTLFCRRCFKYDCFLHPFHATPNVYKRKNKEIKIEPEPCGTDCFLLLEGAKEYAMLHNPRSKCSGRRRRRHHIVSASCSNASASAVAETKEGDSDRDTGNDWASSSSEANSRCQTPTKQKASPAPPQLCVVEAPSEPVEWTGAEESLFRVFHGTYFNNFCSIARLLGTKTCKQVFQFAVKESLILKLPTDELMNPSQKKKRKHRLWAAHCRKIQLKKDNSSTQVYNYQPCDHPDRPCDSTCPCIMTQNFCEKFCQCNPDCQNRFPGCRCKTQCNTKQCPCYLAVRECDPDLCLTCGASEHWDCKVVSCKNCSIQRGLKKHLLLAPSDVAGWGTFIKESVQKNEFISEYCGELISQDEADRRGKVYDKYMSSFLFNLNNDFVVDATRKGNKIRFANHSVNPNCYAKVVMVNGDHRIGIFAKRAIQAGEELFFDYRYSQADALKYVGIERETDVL
EZH-1, sequence (O75530 whole entry partner): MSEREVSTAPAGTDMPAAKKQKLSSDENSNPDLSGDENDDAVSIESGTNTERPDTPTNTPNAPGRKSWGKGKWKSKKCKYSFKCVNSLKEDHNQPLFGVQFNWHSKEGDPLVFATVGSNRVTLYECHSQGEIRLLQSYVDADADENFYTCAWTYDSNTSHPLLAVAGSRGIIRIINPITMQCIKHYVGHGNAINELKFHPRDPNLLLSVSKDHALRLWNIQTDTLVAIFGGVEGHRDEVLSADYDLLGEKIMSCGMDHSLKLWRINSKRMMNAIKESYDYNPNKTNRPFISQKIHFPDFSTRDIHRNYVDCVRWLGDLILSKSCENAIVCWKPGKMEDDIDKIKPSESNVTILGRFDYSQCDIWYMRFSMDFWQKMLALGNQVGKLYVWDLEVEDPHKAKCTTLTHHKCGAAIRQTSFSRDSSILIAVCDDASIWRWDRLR
EZH-1, sequence (Q15022 whole entry partner): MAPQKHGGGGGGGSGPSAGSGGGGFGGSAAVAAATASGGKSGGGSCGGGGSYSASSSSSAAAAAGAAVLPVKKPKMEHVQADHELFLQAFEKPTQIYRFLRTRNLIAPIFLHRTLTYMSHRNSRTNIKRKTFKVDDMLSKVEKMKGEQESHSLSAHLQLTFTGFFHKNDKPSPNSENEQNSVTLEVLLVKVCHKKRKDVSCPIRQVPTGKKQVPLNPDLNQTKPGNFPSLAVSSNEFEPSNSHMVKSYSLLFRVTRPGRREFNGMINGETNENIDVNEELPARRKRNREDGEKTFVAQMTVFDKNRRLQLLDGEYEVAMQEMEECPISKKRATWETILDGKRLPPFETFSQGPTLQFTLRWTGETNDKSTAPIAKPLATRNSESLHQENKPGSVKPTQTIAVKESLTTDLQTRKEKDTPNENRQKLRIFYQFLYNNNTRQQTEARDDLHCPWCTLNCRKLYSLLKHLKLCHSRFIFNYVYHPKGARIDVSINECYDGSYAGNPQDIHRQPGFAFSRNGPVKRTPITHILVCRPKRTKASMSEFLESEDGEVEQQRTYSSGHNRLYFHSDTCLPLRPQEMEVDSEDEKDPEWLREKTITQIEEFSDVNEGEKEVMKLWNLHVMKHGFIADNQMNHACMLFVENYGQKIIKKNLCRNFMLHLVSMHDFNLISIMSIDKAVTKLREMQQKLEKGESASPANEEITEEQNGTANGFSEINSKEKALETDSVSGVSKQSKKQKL
EZH-1, sequence (Q09028 whole entry partner): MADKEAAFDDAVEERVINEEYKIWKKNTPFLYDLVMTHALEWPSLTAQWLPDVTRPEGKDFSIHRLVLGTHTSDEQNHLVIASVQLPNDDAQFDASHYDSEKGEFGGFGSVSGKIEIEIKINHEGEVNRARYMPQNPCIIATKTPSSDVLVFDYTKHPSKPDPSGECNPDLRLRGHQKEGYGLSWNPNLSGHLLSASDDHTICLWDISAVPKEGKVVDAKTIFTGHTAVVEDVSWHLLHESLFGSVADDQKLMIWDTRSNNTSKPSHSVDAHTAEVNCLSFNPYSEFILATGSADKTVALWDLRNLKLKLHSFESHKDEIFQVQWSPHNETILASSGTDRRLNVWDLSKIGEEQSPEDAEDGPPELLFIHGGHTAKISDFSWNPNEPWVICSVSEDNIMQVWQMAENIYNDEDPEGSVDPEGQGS

LSD1 [2] = target: T1, LSD1 (Homo sapiens, UniProt O60341); conditions: Table 6; cited from earlier work
KDM1b = target: T2, KDM1b (Homo sapiens, UniProt Q8NB78); conditions: Table 6; read-out: Select KDM 1b; cited from earlier work
T2 sequence (Q8NB78 1-822): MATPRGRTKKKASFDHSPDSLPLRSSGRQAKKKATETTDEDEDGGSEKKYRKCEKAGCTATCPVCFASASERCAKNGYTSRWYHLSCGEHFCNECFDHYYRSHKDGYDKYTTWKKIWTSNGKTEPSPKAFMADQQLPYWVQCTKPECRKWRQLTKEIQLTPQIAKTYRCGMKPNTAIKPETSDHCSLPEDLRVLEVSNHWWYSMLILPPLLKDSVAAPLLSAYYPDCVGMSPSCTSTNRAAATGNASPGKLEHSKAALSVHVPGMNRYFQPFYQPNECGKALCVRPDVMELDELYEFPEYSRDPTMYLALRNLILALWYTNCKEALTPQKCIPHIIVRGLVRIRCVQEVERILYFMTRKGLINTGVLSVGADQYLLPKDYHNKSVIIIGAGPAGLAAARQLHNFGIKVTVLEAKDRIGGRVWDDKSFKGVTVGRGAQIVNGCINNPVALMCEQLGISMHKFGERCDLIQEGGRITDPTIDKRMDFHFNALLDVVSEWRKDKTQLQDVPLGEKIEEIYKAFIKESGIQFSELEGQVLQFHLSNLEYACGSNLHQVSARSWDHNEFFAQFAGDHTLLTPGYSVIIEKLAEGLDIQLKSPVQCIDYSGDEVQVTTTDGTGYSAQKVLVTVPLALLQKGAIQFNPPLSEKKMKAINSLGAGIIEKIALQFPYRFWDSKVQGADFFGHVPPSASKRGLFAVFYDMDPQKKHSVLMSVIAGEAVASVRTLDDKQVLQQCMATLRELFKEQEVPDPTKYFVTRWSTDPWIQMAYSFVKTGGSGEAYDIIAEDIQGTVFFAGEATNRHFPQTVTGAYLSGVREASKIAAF

MAO A = target: T3, MAO A (Homo sapiens, UniProt P21397); conditions: Table 6; marked A or first value of cell; read-out: Select MAOs A and B: MAO A; cited from earlier work
T3 sequence (P21397 1-527): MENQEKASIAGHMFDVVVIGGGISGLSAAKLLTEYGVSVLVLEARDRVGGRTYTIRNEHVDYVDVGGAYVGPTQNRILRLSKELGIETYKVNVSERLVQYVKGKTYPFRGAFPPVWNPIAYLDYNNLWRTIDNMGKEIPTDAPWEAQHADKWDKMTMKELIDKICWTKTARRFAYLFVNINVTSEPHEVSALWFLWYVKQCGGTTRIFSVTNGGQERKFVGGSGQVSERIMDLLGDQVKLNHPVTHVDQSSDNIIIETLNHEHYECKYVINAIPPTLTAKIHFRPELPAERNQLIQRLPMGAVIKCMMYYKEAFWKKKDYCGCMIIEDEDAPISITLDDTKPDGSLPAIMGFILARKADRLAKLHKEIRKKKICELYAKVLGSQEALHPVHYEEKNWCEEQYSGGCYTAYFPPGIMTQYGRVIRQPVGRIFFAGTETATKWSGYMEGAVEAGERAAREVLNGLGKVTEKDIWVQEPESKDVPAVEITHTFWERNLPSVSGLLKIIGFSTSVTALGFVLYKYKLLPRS

KDM2 = conditions: Table 9; read-out: Select KDM2; cited from earlier work
LSD1 [3] = target: T1, LSD1; conditions: Table 6, LSD1; read-out: pKi or IC50 (converted); cited from earlier work
[4] = Table 6, human; cited from earlier work
MAOs A and B = conditions: Table 6, single value, isoform not stated; read-out: Select MAOs A and B; cited from earlier work
EZH2 [5] = target: EZH2 (Homo sapiens, UniProt Q15910); conditions: Table 7; literature, cells not named; cited from earlier work
EZH2 (Homo sapiens, UniProt Q15910), sequence (Q15910 whole entry): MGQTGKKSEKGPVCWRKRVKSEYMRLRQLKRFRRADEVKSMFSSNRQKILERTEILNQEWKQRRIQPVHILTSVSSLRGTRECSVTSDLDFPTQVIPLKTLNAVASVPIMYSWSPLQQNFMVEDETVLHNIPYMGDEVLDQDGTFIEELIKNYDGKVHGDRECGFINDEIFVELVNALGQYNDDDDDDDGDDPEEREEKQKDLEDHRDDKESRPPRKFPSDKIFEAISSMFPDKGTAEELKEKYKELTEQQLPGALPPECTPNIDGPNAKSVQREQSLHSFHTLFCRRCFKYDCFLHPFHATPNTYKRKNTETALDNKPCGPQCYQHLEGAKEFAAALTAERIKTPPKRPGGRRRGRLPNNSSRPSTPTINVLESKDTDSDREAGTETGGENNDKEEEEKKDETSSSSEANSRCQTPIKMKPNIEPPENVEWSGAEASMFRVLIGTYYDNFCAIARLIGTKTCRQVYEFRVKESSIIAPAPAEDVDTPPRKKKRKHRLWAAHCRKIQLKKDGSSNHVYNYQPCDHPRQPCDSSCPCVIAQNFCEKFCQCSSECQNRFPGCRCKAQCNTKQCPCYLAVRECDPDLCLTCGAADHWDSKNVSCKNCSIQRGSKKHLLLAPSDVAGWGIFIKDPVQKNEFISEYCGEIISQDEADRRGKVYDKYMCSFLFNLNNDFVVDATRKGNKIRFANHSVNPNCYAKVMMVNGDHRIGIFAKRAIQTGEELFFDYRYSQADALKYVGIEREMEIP
EZH2 (Homo sapiens, UniProt Q15910), sequence (O75530 whole entry partner): as the sequence (O75530 whole entry partner) above
EZH2 (Homo sapiens, UniProt Q15910), sequence (Q15022 whole entry partner): as the sequence (Q15022 whole entry partner) above
EZH2 (Homo sapiens, UniProt Q15910), sequence (Q09028 whole entry partner): as the sequence (Q09028 whole entry partner) above

HDAC = conditions: Table 4, HDAC class; cited from earlier work
KDM = conditions: Table 9; cited from earlier work
[6] = human, in vivo
Text: Patients underwent physical examination of weight and height, vital signs (body temperature, pulse rate, blood pressure), 12-lead electrocardiogram (ECG), drug screen, clinical laboratory testing (hematology, serum chemistry, urinalysis), urine pregnancy test, and hepatitis B and C antibody tests.

[7] = Perilymph sampling after intratympanic injection, mass spectrometry; format: in vivo; conditions: mice, perilymph of 7 animals, within 0.5 hours after intratympanic injection of 10 µL with 87.6 mg/ml NaVPA and 1.39 mg/ml CHIR99021
Method: The effects of CHIR99021 and valproic acid (VPA) on hearing in mice with SNHL were examined. Ten-week-old CBA/CaJ mice were deafened using an established method in which mice were exposed to 8-16 kHz octave band noise for 2 hours at ≥116 dB (Wang et al., 2002). […] Auditory brainstem responses (ABRs) were obtained using tone-burst stimuli for frequencies spanning ˜80% of the cochlea 24 hours after noise administration to establish a baseline for recovery. Animals were dosed once following the 24 hour ABR. Distortion product otoacoustic emissions (DPOAEs) were not routinely analyzed since thresholds after treatment were above DPOAE detection levels. CHIR99021 and VPA were delivered locally by intratympanic injection into the middle ear using a pulled glass pipette, a technique that mimics the standard clinical middle ear injection technique used in humans. The delivery vehicle was adapted from previous work using thermo-reversible poloxamer gels to deliver drugs into the middle ear for diffusion into the cochlea (Salt et al, 2011; Wang et al, 2009). […] Using established techniques (Hirose et al., 2014), perilymph was sampled from 7 animals and analyzed using mass spectrometry to determine entry of CHIR99021 and VPA into the cochlea. Within 0.5 hours, CHIR99021 was detected at 3.5 μM+1.5 μM and VPA was detected at 310.3 μM+51.8 μM. […]

[8] = Table 10, TAZ activators, concentration range
[9] = Table 1, GSK3 inhibitors, concentration range
[10] = Table 7, EZH2 inhibitors, concentration range

EZH2 (Homo sapiens, UniProt O75530+Q15910), sequence (Q15910 whole entry): as the sequence (Q15910 whole entry) above
EZH2 (Homo sapiens, UniProt O75530+Q15910), sequence (O75530 whole entry): as the sequence (O75530 whole entry partner) above
EZH2 (Homo sapiens, UniProt O75530+Q15910), sequence (Q15022 whole entry partner): as the sequence (Q15022 whole entry partner) above
EZH2 (Homo sapiens, UniProt O75530+Q15910), sequence (Q09028 whole entry partner): as the sequence (Q09028 whole entry partner) above

CCCCc1nc2cc(-c3cccnc3)c(C)nc2n1Cc1ccc(-c2ccccc2-c2nn[nH]n2)cc1 [TM-25659]
Lit Cell (TAZ): 10 to 100 µM
Lgr5+ Assay (Lgr5+ cochlear cells; [8]): 10 to 100 µM

COc1cc(C)[nH]c(=O)c1CN1CCc2c(Cl)cc([C@H](OC)C3COC3)c(Cl)c2C1=O [PF-06821497]
IC50 (EZH2 [1]): < 1 nM
Select vs EZH-1 (EZH-1; given as a concentration): 70 nM

CCCc1cc(C)[nH]c(=O)c1CNC(=O)c1cc(-c2ccc(N3CCN(C(C)C)CC3)nc2)cc2c1cnn2C(C)C [UNC1999]
IC50 (EZH2 [1]): 10 nM

N[C@H]1CC[C@H](N[C@@H]2C[C@H]2c2ccccc2)CC1 [ORY-1001]
Literat. Cell (LSD1 [2]): 0.5 to 3 nM
IC50 (KDM1b): > 100 µM
IC50 (MAO A): > 100 µM
Lgr5+ Assay (Lgr5+ cochlear cells; Table 6): 0.041 µM

O=C(O)CCN(O)C(=O)CCCCCCCCC1CC1 [TC-E 5002]
IC50 (KDM2): 6.8 µM

N#Cc1ccc2[nH]c(O)c(-c3ccc(CN4CCOCC4)cn3)c2c1 [AZD 1080]
Lgr5+ Assay (Lgr5+ cochlear cells; [9]): 1 to 5 µM

CCC(CC)n1ccc2c(C(=O)NCc3c(C)cc(C)[nH]c3=O)cc(C#N)cc21 [Compound E11]
IC50 (EZH2 [1]): 13 nM
IC50 (LSD1 [3]): 0.243 µM
Select vs EZH-1 (EZH-1; given as fold): 90x
Lgr5+ Assay (Lgr5+ cochlear cells; Table 7, EZH2 inhibitors, concentration): 5 µM

CCCc1cc(C)[nH]c(=O)c1CNC(=O)c1cc(-c2ccnc(N3CCN(C)CC3)c2)cc2c1cnn2C(C)C [GSK343]
IC50 (EZH2 [1]): 1.2 nM
Select vs EZH-1 (EZH-1; given as fold): 60x

CC(C)=CCC/C(C)=C/CC/C(C)=C/CC/C(C)=C/CO [Geranylgeraniol]
IC50 (LSD1 [3]): 80 µM

COc1cc(C)[nH]c(=O)c1CNC(=O)c1c(C)n([C@H](C)C2CCOCC2)c2ccccc12 [CPI-360]
Lgr5+ Assay (Lgr5+ cochlear cells; [10]): 0.1 to 10 µM

C=CCNc1nc(N)c(C(=O)c2ccc(F)s2)s1 [TT10]
Lit Cell (TAZ): 1 µM
Lgr5+ Assay (Lgr5+ cochlear cells; [8]): 1 to 10 µM

Oc1ccc(C=Cc2cc(O)cc(O)c2)cc1 [Resveratrol]
IC50 (LSD1 [3]): 15 µM

CCc1c(N(CC)C2CCOCC2)cc2oc(C3CCN(C(C)C)CC3)cc2c1C(=O)NCc1c(C)cc(C)[nH]c1=O [EBI-2511]
IC50 (EZH2 [1]): 4 nM

CN1CCN(C(=O)[C@H](CCCN[C@@H]2C[C@H]2c2ccc(F)cc2)NC(=O)c2ccc(-n3ccnn3)cc2)CC1 [IMG-7289]
Human Plasma Conc, Cmax [4]: 63 ng/mL

Cc1cc(C)c(CNC(=O)c2cc(-c3ccc(N4CCN(C)CC4)nc3)cc3c2cnn3C(C)C)c(=O)[nH]1 [GSK926]
IC50 (EZH2 [1]): 7.9 nM

C=CCNc1nc(N)c(C(=O)c2ccc(Cl)s2)s1 [IBS008738]
Lgr5+ Assay (Lgr5+ cochlear cells; [8]): 1.1 to 30 µM

Cc1coc2c1C(=O)C(=O)c1c-2ccc2c1CC[C@@H](O)[C@]2(C)O [Tanshindiol C]
IC50 (EZH2 [1]): 550 nM

Cc1coc2c1C(=O)C(=O)c1c-2ccc2c1CC[C@H](O)[C@]2(C)O [Tanshindiol B]
IC50 (EZH2 [1]): 520 nM

N#Cc1c2c(c3nncn3c1NCc1ccco1)CN(Cc1ccccc1)CC2 [EED162]
IC50 (EZH2 [1]): 30 nM

Cc1ccc(C(=O)Nc2c[nH]nc2C(=O)NCCCOC(C)C)cn1 [GSK XXII]
Lgr5+ Assay (Lgr5+ cochlear cells; [9]): 0.2 to 1 µM

Nc1ncnc2c1ncn2[C@@H]1O[C@H](C[C@@H](N)CC[C@H](N)C(=O)O)[C@@H](O)[C@H]1O [Sinefungin]
IC50 (EZH2 [1]): 20 nM

CC(C)=CCC/C(C)=C/CC/C(C)=C/CC/C(C)=C/C(=O)O [geranylgeranoic acid]
IC50 (LSD1 [3]): 120 µM

C/C(=N\NC(=O)c1cccc(S(=O)(=O)N2CCOCC2)c1)c1cc(Cl)ccc1O [SP-2509]
IC50 (MAOs A and B): > 300 µM

Nc1nccc2c1ncn2[C@@H]1C=C(CO)[C@@H](O)[C@H]1O [DZNep]
Lit Cell Poten (EZH2 [5]): 1 µM
Lgr5+ Assay (Lgr5+ cochlear cells; Table 7, EZH2 inhibitors, result in words): Activity

O=C(O)c1ccc(CN2CCC(CN[C@@H]3C[C@H]3c3ccccc3)CC2)cc1 [GSK-2879552]
IC50 (MAOs A and B): 20 µM

CCCC(CCC)C(=O)[O-].[Na+] [Sodium Valproate]
Class selectivity (HDAC): Class I

Thiourea
IC50 (MAOs A and B): > 1250 µM

O=C(O)CCNc1cc(N2CCc3ccccc3CC2)nc(-c2ccccn2)n1 [GSK-J1]
Lit Cell (KDM): 50 µM

CCCc1cc(C)[nH]c(=O)c1CNC(=O)c1cc(-c2ccc(N3CCN(C(=O)CCOCCOCCOCCOCCOCCOCCOCCOCCOCCOCCOCCOCCNC(=O)CCCC[C@@H]4SC[C@@H]5NC(=O)N[C@@H]54)CC3)nc2)cc2c1cnn2C(C)C [UNC 2399]
Lgr5+ Assay (Lgr5+ cochlear cells; [10]): 0.1 to 10 µM

C#CCN(C)Cc1ccccc1 [Pargyline]
IC50 (LSD1 [3]): 1000 µM

N[C@@H]1C[C@H]1c1ccccc1 [TCP]
Human Plasma Conc, Cmax [4]: 30 to 200 ng/mL
Lgr5+ Assay (Lgr5+ cochlear cells; Table 6, concentration range): 0.1 to 20 µM

C#CCC(CCCCCC)C(=O)O (stereo not drawn) [2-hexyl-4-pentynoic acid]
Class selectivity (HDAC): Class I

Cc1cc(C)c(CN2CCc3c(Cl)cc(-c4c(C)noc4C)c(Cl)c3C2=O)c(=O)[nH]1 [PF-06726304]
Lit Cell Poten (EZH2 [5]): 0.01 to 0.025 µM
IC50 (EZH2 [1]): 1.1 nM

Cc1c[nH]c(-c2cnc(NCCNc3ccc(C#N)cn3)nc2-c2ccc(Cl)cc2Cl)n1 [CHIR99021]
time until cleared from the systemic circulation [6]: ≤ 24 h
Lgr5+ Assay (Lgr5+ cochlear cells; [9]): 2 to 6 µM

CCCC(CCC)C(=O)O [VPA, valproic acid]
concentration detected in perilymph [7]: 310.3 µM
time to peak plasma concentrations [6]: ≤ 2 h
time until cleared from the systemic circulation [6]: ≤ 24 h
